According to US20260001892A1, “COMPOUND FOR REGULATING AND CONTROLLING ACTIVITY OF 15-PGDH AND PREPARATION METHOD THEREFOR” (SCINNOHUB PHARMACEUTICAL CO., LTD., priority 2022, published 2026):

Target: 15-PGDH (Homo sapiens (Human), UniProt P15428)
Experiment: Detection of activity of 15-PGDH enzyme
Format: biochemical
Conditions: inhibitory activity against 15-PGDH enzyme; substrates β-NAD and PGF2α; fluorescence Ex/Em=340/450
Description: • a. A solution of pH 7.5 containing 50 mM Tris-HCl, 0.01% Tween 20 was prepared with ultrapure water as a reaction buffer; • b. A 10 mM mother liquor of the compound to be tested was prepared with DMSO, and then the reaction buffer was used to dilute the mother liquor of the compound to be tested to obtain solution 1 of the compound to be tested at a concentration of 40,000 nM, and then the solution 1 of the compound to be tested was serially diluted into solutions 2-9 (or 2-12) of the compound to be tested at 9 (or 11) concentrations with a gradient difference of three-fold. 5 μL of each concentration of solutions of the compound to be tested was respectively taken and added into a 384-well plate as test wells; • c. 5 μL of the reaction buffer was then added to the blank wells of the 384-well plate as positive control and blank control wells, respectively; • d. The reaction buffer was used to prepare a 15-PGDH protein solution at a concentration of 5 ng/μL, 5 μL of the 15-PGDH protein solution was taken and added to the test wells and positive control wells, and meanwhile 5 μL of the reaction buffer was added to the blank control wells, then the plate was centrifuged at 2000 rpm for 30 seconds; • e. The reaction buffer was used to prepare 5 mM $3-NAD and 2 mM PGF2α, respectively, which were mixed at 1:1 by volume to obtain a substrate mixture, 10 μL of the substrate mixture was taken and added to the test wells, positive control wells and blank control wells to start the reaction; • f. The fluorescence signal value (Ex/Em=340/450) of each well was detected continuously by using a multifunctional microplate reader.
• a) Continuous fluorescence signal values were analyzed by using the “kinetic calculations-slope calculation method” in the PHERAstar Data analysis software to obtain the slope of each test well; • b) The inhibition rate % was calculated by using the following formula: inhibition rate %=[1−(slope of test well-signal value of positive control well)/(signal value of blank control well-average signal value of positive control well)]×100%. • c) Calculation of IC50 and plotting of inhibition rate-dose curves: IC50 values were calculated by fitting compound concentrations and corresponding inhibition rates with a nonlinear regression (dose response-variable slope) via using GraphPad Prism 6.0. The formula was shown below:
Y=Bottom+(Top−Bottom)/(1+10^((Log IC50−X)*HillSlope)), wherein X is a log value of a concentration of the compound, and Y is inhibition rate %.

Chain of 15-PGDH (P15428 whole entry): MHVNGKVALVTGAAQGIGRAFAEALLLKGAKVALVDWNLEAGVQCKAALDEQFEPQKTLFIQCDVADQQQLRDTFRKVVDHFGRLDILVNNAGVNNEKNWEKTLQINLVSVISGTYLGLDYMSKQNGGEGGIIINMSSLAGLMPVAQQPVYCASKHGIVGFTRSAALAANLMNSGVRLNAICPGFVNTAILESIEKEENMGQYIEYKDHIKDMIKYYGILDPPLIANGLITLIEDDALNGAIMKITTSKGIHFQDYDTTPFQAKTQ

SMILES	IC50
CN1Cc2cc(-c3cnc4c(C5CC5)c(C(=O)N5CCCCC5)sc4n3)ccc2C1=O [Example 32]	< 3 nM
O=C(c1sc2nc(-c3ccc4c(c3)OCO4)cnc2c1C1CC1)N1CCCCC1 [Example 14]	3 to 10 nM
Cn1cc(-c2cnc3c(C(F)(F)F)c(C(=O)N4CCCCC4)sc3n2)ccc1=O [Example 71]	3 to 10 nM
O=C(c1sc2nc(-c3cccs3)cnc2c1C(F)(F)F)N1CCCCC1 [Example 69]	< 3 nM
COc1ccc(-c2cnc3c(C#N)c(C(=O)N4CCCCC4)sc3n2)cn1 [Example 50]	10 to 20 nM
O=C(c1sc2nc(-c3ccc4c(c3)OCCO4)cnc2c1C1CC1)N1CCCCC1 [Example 21]	3 to 10 nM
N#Cc1c(C(=O)N2CCCCC2)sc2nc(-c3ccc4ncsc4c3)cnc12 [Example 48]	3 to 10 nM
O=C(c1sc2nc(-c3cnc(N4CCOCC4)nc3)cnc2c1C(F)(F)F)N1CCCCC1 [Example 89]	10 to 20 nM
